Assays:
[1] = Glass transition temperature of plasticized PVC by differential scanning calorimetry (DSC); type: physicochemical; settings: PVC composite with 10 wt % plasticizer; unplasticized PVC 83.0 ° C.; lower preferred
Text: (§1) FIG. 5 provides thermal analysis of lignin-derived biaryl plasticizers. From left to right: unplasticized PVC, 10 wt % plasticized PVC with DEHP, and 10 wt % plasticized PVC with lignin-derived biaryl plasticizers.
(§2) Plasticizer properties of lignin-derived biaryls. The above results provide access to all possible homo- and cross-coupled BPDA derivatives of H, G, and S. These structures provide the basis for testing of these materials as plasticizers for PVC and comparison of their performance relative to the existing petroleum-derived incumbent, di(2-ethylhexyl)phthalate (DEHP). Each of the BPDA methyl esters was subjected to Ti(OBu)4-promoted transesterification with 2-ethylhexanol to afford the corresponding DEH-BPDA derivatives, designated H—H^PL, H-G^PL, H—S^PL, G-G^PL, G-S^PL, and S—S^PL. The thermal properties of these structures were characterized by thermogravimetric analysis (TGA) and differential scanning calorimetry (DSC). DEHP and the DEH-BPDA derivatives were then individually integrated with PVC at 10 wt %, and the composites were analyzed by TGA and DSC to identify their glass transition temperature (Tg) and the temperature at which the polymer degrades with 10% or 50% loss of its original weight (Td10, Td50). The former value reflects the ability of the plasticizer to soften PVC, while the latter values reflect the thermostability of the composite material. […]

[2] = Thermostability of plasticized PVC by thermogravimetric analysis (TGA); type: physicochemical; settings: PVC composite with 10 wt % plasticizer; PVC itself 272 ° C.; higher preferred
Text: as §1, §2

Q: Which results are given for `CCCCC(CC)COC(=O)c1ccccc1C(=O)OCC(CC)CCCC` (centres unmarked) [DEHP, di(2-ethylhexyl)phthalate]?
A: glass transition temperature (Tg) [1]: 52.1 °C; Td10 (temperature at which the polymer degrades with 10% loss of its original weight) [2]: 253 °C
